Settings: Liquid, Vibrating tube method

CCCCCCC(C)N (stereo not given) [1-methylheptylamine]
Settings | mass density [kg/m3]
293.15 K, 100 kPa | 772
293.15 K, 10000 kPa | 778.7
293.15 K, 20000 kPa | 784.8
293.15 K, 30000 kPa | 790.6
293.15 K, 40000 kPa | 796.1
293.15 K, 50000 kPa | 801.2
293.15 K, 60000 kPa | 806
293.15 K, 70000 kPa | 810.6
293.15 K, 80000 kPa | 815
293.15 K, 90000 kPa | 819.1
293.15 K, 100000 kPa | 823.2
293.15 K, 110000 kPa | 826.9
293.15 K, 120000 kPa | 830.6
293.15 K, 130000 kPa | 834.2
293.15 K, 140000 kPa | 837.6
303.15 K, 100 kPa | 764
303.15 K, 10000 kPa | 771.3
303.15 K, 20000 kPa | 777.8
303.15 K, 30000 kPa | 783.8
303.15 K, 40000 kPa | 789.2
303.15 K, 50000 kPa | 794.5
303.15 K, 60000 kPa | 799.5
303.15 K, 70000 kPa | 804.2
303.15 K, 80000 kPa | 808.7
303.15 K, 90000 kPa | 813
303.15 K, 100000 kPa | 817.1
303.15 K, 110000 kPa | 821
303.15 K, 120000 kPa | 824.8
303.15 K, 130000 kPa | 828.5
303.15 K, 140000 kPa | 832
313.15 K, 100 kPa | 755.8
313.15 K, 10000 kPa | 763.5
313.15 K, 20000 kPa | 770.4
313.15 K, 30000 kPa | 776.7
313.15 K, 40000 kPa | 782.5
313.15 K, 50000 kPa | 788.1
313.15 K, 60000 kPa | 793.2
313.15 K, 70000 kPa | 798.1
313.15 K, 80000 kPa | 802.7
313.15 K, 90000 kPa | 807.1
313.15 K, 100000 kPa | 811.4
313.15 K, 110000 kPa | 815.5
313.15 K, 120000 kPa | 819.4
313.15 K, 130000 kPa | 823.1
313.15 K, 140000 kPa | 826.7
323.15 K, 100 kPa | 748.1
323.15 K, 10000 kPa | 756
323.15 K, 20000 kPa | 763.2
323.15 K, 30000 kPa | 769.9
323.15 K, 40000 kPa | 776
323.15 K, 50000 kPa | 781.6
323.15 K, 60000 kPa | 787.1
323.15 K, 70000 kPa | 792.2
323.15 K, 80000 kPa | 797
323.15 K, 90000 kPa | 801.5
323.15 K, 100000 kPa | 805.9
323.15 K, 110000 kPa | 810.1
323.15 K, 120000 kPa | 814.1
323.15 K, 130000 kPa | 818
323.15 K, 140000 kPa | 821.6
333.15 K, 100 kPa | 739.6
333.15 K, 10000 kPa | 748.1
333.15 K, 20000 kPa | 755.5
333.15 K, 30000 kPa | 762.6
333.15 K, 40000 kPa | 769
333.15 K, 50000 kPa | 775
333.15 K, 60000 kPa | 780.6
333.15 K, 70000 kPa | 785.8
333.15 K, 80000 kPa | 790.9
333.15 K, 90000 kPa | 795.5
333.15 K, 100000 kPa | 800
333.15 K, 110000 kPa | 804.4
333.15 K, 120000 kPa | 808.5
333.15 K, 130000 kPa | 812.5
333.15 K, 140000 kPa | 816.3
343.15 K, 100 kPa | 731.5
343.15 K, 10000 kPa | 740.5
343.15 K, 20000 kPa | 748.6
343.15 K, 30000 kPa | 756
343.15 K, 40000 kPa | 762.7
343.15 K, 50000 kPa | 768.9
343.15 K, 60000 kPa | 774.7
343.15 K, 70000 kPa | 780.2
343.15 K, 80000 kPa | 785.3
343.15 K, 90000 kPa | 790.2
343.15 K, 100000 kPa | 794.9
343.15 K, 110000 kPa | 799.2
343.15 K, 120000 kPa | 803.4
343.15 K, 130000 kPa | 807.5
343.15 K, 140000 kPa | 811.4
353.15 K, 100 kPa | 723.2
353.15 K, 10000 kPa | 733
353.15 K, 20000 kPa | 741.6
353.15 K, 30000 kPa | 749.3
353.15 K, 40000 kPa | 756.2
353.15 K, 50000 kPa | 762.7
353.15 K, 60000 kPa | 768.7
353.15 K, 70000 kPa | 774.4
353.15 K, 80000 kPa | 779.7
353.15 K, 90000 kPa | 784.7
353.15 K, 100000 kPa | 789.5
353.15 K, 110000 kPa | 794.1
353.15 K, 120000 kPa | 798.4
353.15 K, 130000 kPa | 802.3
353.15 K, 140000 kPa | 806.3
363.15 K, 100 kPa | 714.7
363.15 K, 10000 kPa | 724.9
363.15 K, 20000 kPa | 734
363.15 K, 30000 kPa | 742
363.15 K, 40000 kPa | 749.3
363.15 K, 50000 kPa | 756.1
363.15 K, 60000 kPa | 762.4
363.15 K, 70000 kPa | 768.3
363.15 K, 80000 kPa | 773.8
363.15 K, 90000 kPa | 779
363.15 K, 100000 kPa | 783.9
363.15 K, 110000 kPa | 788.5
363.15 K, 120000 kPa | 793
363.15 K, 130000 kPa | 797.3
363.15 K, 140000 kPa | 801.4
373.15 K, 100 kPa | 706
373.15 K, 10000 kPa | 717.2
373.15 K, 20000 kPa | 726.6
373.15 K, 30000 kPa | 735.2
373.15 K, 40000 kPa | 742.9
373.15 K, 50000 kPa | 749.9
373.15 K, 60000 kPa | 756.8
373.15 K, 70000 kPa | 762.8
373.15 K, 80000 kPa | 768.5
373.15 K, 90000 kPa | 773.8
373.15 K, 100000 kPa | 778.9
373.15 K, 110000 kPa | 783.7
373.15 K, 120000 kPa | 788.3
373.15 K, 130000 kPa | 792.8
373.15 K, 140000 kPa | 796.8
383.15 K, 100 kPa | 697.6
383.15 K, 10000 kPa | 709.4
383.15 K, 20000 kPa | 719.5
383.15 K, 30000 kPa | 728.5
383.15 K, 40000 kPa | 736.4
383.15 K, 50000 kPa | 743.8
383.15 K, 60000 kPa | 750.6
383.15 K, 70000 kPa | 756.8
383.15 K, 80000 kPa | 762.7
383.15 K, 90000 kPa | 768.1
383.15 K, 100000 kPa | 773.3
383.15 K, 110000 kPa | 778.3
383.15 K, 120000 kPa | 783
383.15 K, 130000 kPa | 787.5
383.15 K, 140000 kPa | 791.8
393.15 K, 100 kPa | 689
393.15 K, 10000 kPa | 701.6
393.15 K, 20000 kPa | 712.3
393.15 K, 30000 kPa | 721.7
393.15 K, 40000 kPa | 730
393.15 K, 50000 kPa | 737.9
393.15 K, 60000 kPa | 744.9
393.15 K, 70000 kPa | 751.4
393.15 K, 80000 kPa | 757.5
393.15 K, 90000 kPa | 763.2
393.15 K, 100000 kPa | 768.6
393.15 K, 110000 kPa | 773.6
393.15 K, 120000 kPa | 778.4
393.15 K, 130000 kPa | 782.8
393.15 K, 140000 kPa | 787.2
403.15 K, 100 kPa | 680.1
403.15 K, 10000 kPa | 693.5
403.15 K, 20000 kPa | 705
403.15 K, 30000 kPa | 714.8
403.15 K, 40000 kPa | 723.5
403.15 K, 50000 kPa | 731.5
403.15 K, 60000 kPa | 738.7
403.15 K, 70000 kPa | 745.4
403.15 K, 80000 kPa | 751.6
403.15 K, 90000 kPa | 757.5
403.15 K, 100000 kPa | 763.1
403.15 K, 110000 kPa | 768.3
403.15 K, 120000 kPa | 773.2
403.15 K, 130000 kPa | 777.9
403.15 K, 140000 kPa | 782.4

— the NIST ThermoML archive (doi:10.1021/je800786k)
